US5183826A, “Antiviral agent” (Merck & Co., Inc., priority 1990, dated 1993)

What was measured:
[1] = cytotoxic and other side effects (statement)
proteases = assay: specificity against other proteases (statement); format: biochemical; conditions: no inhibitory effect or some activity only against proteases whose locus of action is avoidable
[2] = solubility in organic solvents; conditions: methanol, ethanol, isopropanol, ethyl acetate, chloroform, dimethylformamide, benzene, diethyl ether, dimethyl sulfoxide
[3] = system: platelet activating factor; assay: assay for platelet activating factor
HIV protease = target: T1, HIV protease (Human immunodeficiency virus type 1 group M subtype B, UniProt P12497); assay: HIV protease inhibition: cleavage of radiolabelled synthetic peptide substrate (beta-naphthylalanine-proline bond); format: biochemical; conditions: for Disintegrations/Minute: Blank 236, Total (Control) 4497
T1 construct: ability of a HIV protease to cleave the peptide bond
Source text: The HIV protease inhibitor activity may be seen in an assay to test the presence of a compound which affects the ability of a HIV protease to cleave the peptide bond between β-naphthylalanine and proline. A suitable substrate is ^3 H β-casein. However, a synthetic peptide containing the β-naphthylalanine and proline link gives more consistent results and one especially preferred is a peptide which is radioactively labelled at one terminus and arginine substituted at the other terminus thereby allowing the basic end to be bound to a cation exchange resin and the cleaved labelled fragment to be found in the eluate.
In a representative assay, 25 μl of a dilute peptide substrate solution containing 0.5 μl of the substrate in a 100 mM sodium acetate buffer was added to an assay tube containing (a) 45 μl of 111 mM sodium acetate buffer, (b) 25 μl of a diluted protease solution containing 0.4% bovine serum albumin (BSA) and (c) 5 μl of a solution containing from 0.63 to 210 μM of Compound I, or to blank tubes containing 25 μl of 100 mM sodium acetate plus 0.4 percent BSA, 45 μl of 111 mM sodium acetate buffer and 5 μl of dimethyl sulfoxide (DMSO) (99 vols. DMSO plus 1 vol 100 mM tris(hydroxymethyl)aminomethane (TRIS·HCl), pH 7.5). In the tubes, the concentration of the protease solution is 2.0 nM. The assay tubes are then incubated for 37° C. for 60 minutes and the reaction then quenched with 100 μl of 5% H3 PO4.
150 microliters of the reaction mixture was placed on a cation exchange column (Dowex AG-50W-X8, Dow Chemical Company) and the column then washed with 1.85 milliliters of water and the effluents collected in scintillation vials. 7-10 milliliters of scintillation cocktails were added to each vial, the vials vortexed vigorously, then placed in the scintillation counter and counted using the tritium channel. The results were as follows:
The percent inhibition was obtained by the following calculation: [formula]

## C=C1C(C)C2C(Cc3ccccc3)NC(=O)C23C(OC(C)=O)/C=C/C(C)CC(C)C/C=C/C3C1O (stereo not shown) [Compound I]
[1]
  undesirable cytotoxic and other side effects: substantially free of undesirable cytotoxic and other side effects
proteases
  specificity among proteases: highly specific having no inhibitory effect or showing some activity only against proteases whose locus of action is avoidable
[2]
  solubility in organic solvents: soluble in organic solvents
[3]
  activity in an assay for platelet activating factor: some activity
HIV protease
  HIV protease inhibition (general statement in words): very effective HIV protease inhibitor
  IC50: ~6.28 µM
HIV protease; Compound I 2.1 μM
  Disintegrations/Minute: 3862 Disintegrations/Minute
HIV protease; Compound I 2.1 μM, protease 2.0 nM, 37° C., 60 minutes, read-out: Percent Inhibition
  inhibition at 2.1 µM: 15%
HIV protease; Compound I 6.3 μM
  Disintegrations/Minute: 2309 Disintegrations/Minute
HIV protease; Compound I 6.3 μM, protease 2.0 nM, 37° C., 60 minutes, read-out: Percent Inhibition
  inhibition at 6.3 µM: 51%
HIV protease; Compound I 21 μM
  Disintegrations/Minute: 1139 Disintegrations/Minute
HIV protease; Compound I 21 μM, protease 2.0 nM, 37° C., 60 minutes, read-out: Percent Inhibition
  inhibition at 21 µM (stock): 79%
HIV protease; Compound I 63 μM
  Disintegrations/Minute: 550 Disintegrations/Minute
HIV protease; Compound I 63 μM, protease 2.0 nM, 37° C., 60 minutes, read-out: Percent Inhibition
  inhibition at 63 µM: 93%
HIV protease; Compound I 210 μM
  Disintegrations/Minute: 402 Disintegrations/Minute
HIV protease; Compound I 210 μM, protease 2.0 nM, 37° C., 60 minutes, read-out: Percent Inhibition
  inhibition at 210 µM: 96%
HIV protease; Compound I .63 μM
  Disintegrations/Minute: 5265 Disintegrations/Minute
HIV protease; Compound I .63 μM, protease 2.0 nM, 37° C., 60 minutes, read-out: Percent Inhibition
  inhibition at 0.63 µM (stock): -18%
HIV protease; concentration of Compound I about 63 μm or greater
  inhibition of HIV protease (in words): very high degree to substantially complete inhibition
